# Results as given in patent US20080033057A1, “Hexahydro-isoalpha acid based protein kinase modulation cancer treatment” (Metaproteomics, LLC, priority 2006, published 2008).
# Marks after values point to notes of the source that are not given here.
# Assays:
# 3T3-L1 adipocytes [1] = assay: Adiponectin secretion from LPS-treated 3T3-L1 adipocytes; type: cell-based, murine; conditions: for induction of adiponectin secretion: any of the doses tested
# 3T3-L1 adipocytes [2] = assay: Lipogenesis (Oil Red O / BODIPY) in 3T3-L1 adipocytes; type: cell-based, murine; conditions: hops compounds 10, 5, 4 or 2 μg/ml; spent hops 50 μg/ml
# Protocol: Prior to experiments, cells were cultured in DMEM containing 10% FBS-HI added 50 units penicillin/ml and 50 μg streptomycin/ml, and maintained in log phase prior to experimental setup. Cells were grown in a 5% CO2 humidified incubator at 37° C. Components of the pre-confluent medium included (1) 10% FBS/DMEM containing 4.5 g glucose/L; (2) 50 U/ml penicillin; and (3) 50 μg/ml streptomycin. Growth medium was made by adding 50 ml of heat inactivated FBS and 5 ml of penicillin/streptomycin to 500 ml DMEM. This medium was stored at 4° C. Before use, the medium was warmed to 37° C. in a water bath.
# T3-T1 cells were seeded at an initial density of 6×10^4 cells/cm^2 in 24-well plates. For two days, the cells were allowed grow to reach confluence. Following confluence, the cells were forced to differentiate into adipocytes by the addition of differentiation medium; this medium consisted of (1) 10% FBS/DMEM (high glucose); (2) 0.5 mM methylisobutylxanthine; (3) 0.5 μM dexamethasone and (4) 10 μg/ml insulin (MDI medium). After three days, the medium was changed to post-differentiation medium consisting of 10 μg/ml insulin in 10% FBS/DMEM.
# AcE was partially dissolved in dimethyl sulfoxide (DMSO) and added to the culture medium to achieve a concentration of 50 μg/ml at Day 0 of differentiation and throughout the maturation phase (Days 6 or 7 (D6/7)). […]
# Oil Red O Staining—Triglyceride content of D6/D7-differentiated 3T3-L1 cells was estimated with Oil Red O according to the method of Kasturi and Joshi [Kasturi, R. and Joshi, V. C. […] The resulting stained oil droplets were extracted from the cells with isopropanol and quantified by spectrophotometric analysis at 540 nm (MEL312e BIO-KINETICS READER, Bio-Tek Instruments, Winooski, Vt.).
# Briefly, media were removed and cells were washed once with non-sterile PBS. […] After 15 min on an orbital shaker (DS-500, VWR Scientific Products, South Plainfield, N.J.) at ambient temperature, the cells were washed with 100 μL PBS followed by the addition of 100 μl PBS for reading for spectrofluorometric determination of BODIPY incorporation into the cells. […]
# 3T3-L1 adipocytes [3] = assay: Adiponectin secretion from insulin-resistant 3T3-L1 adipocytes; type: cell-based, murine
# Protocol: 3T3-L1 cells were seeded at an initial density of 1×10^4 cells/cm^2 in 96-well plates. For two days, the cells were allowed grow to reach confluence. Following confluence, the cells were forced to differentiate into adipocytes by the addition of differentiation medium; this medium consisted of (1) 10% FBS/DMEM (high glucose); (2) 0.5 mM methylisobutylxanthine; (3) 0.5 μM dexamethasone and (4) 10 μg/ml insulin (MDI medium). From Day 3 through Day 5, the medium was changed to post-differentiation medium consisting of 10 μg/ml insulin in 10% FBS/DMEM.
# Briefly, on Day 6, cells were maintained in serum-free media containing 0.5% bovine serum albumin (BSA) for three hours and then treated with 1 μg insulin/ml plus solvent or insulin plus test material. […] Twenty-four hours later, the supernatant medium was sampled for adiponectin determination.
# Adiponectin Assay—The adiponectin secreted into the medium was quantified using the Mouse Adiponectin Quantikine® Immunoassay kit with no modifications (R&D Systems, Minneapolis, Minn.).
# Statistical Calculations and Interpretation—All assays were preformed in duplicate. […] Differences between the doses were determined using the student's t-test without correction for multiple comparisons; the nominal five percent probability of a type I error was selected. […]
# 3T3-L1 adipocytes [4] = assay: Adiponectin secretion from TNFα-treated 3T3-L1 adipocytes; type: cell-based, murine
# Protocol: For two days, the cells were allowed grow to reach confluence. […] (3) 0.5 μM dexamethasone and (4) 10 μg/ml insulin (MDI medium). […] Adiponectin Assay—The adiponectin secreted into the medium was quantified using the Mouse Adiponectin Quantikine® Immunoassay kit with no modifications (R&D Systems, Minneapolis, Minn.). […] Statistical Calculations and Interpretation—All assays were preformed in duplicate. […] Differences among the doses and test agents were determined using the Student's t-test without correction for multiple comparisons; the nominal five percent probability of a type I error was selected.
# 3T3-L1 adipocytes [5] = assay: IL-6 secretion from LPS-treated 3T3-L1 adipocytes; type: cell-based, murine; conditions: with 100 ng LPS/ml, D5 3T3-L1 adipocytes
# [6] = Non-fasting serum glucose and insulin in db/db diabetic mice; type: in vivo, mouse
# Protocol: The Model—Male, C57BLKS/J m^+/m^+ Lepr^db (db/db) mice were used to assess the potential of the test materials to reduce fasting serum glucose or insulin concentrations.
# Testing Procedure—Test substances were administered daily by gavage in 0.2% Tween-80. Serum was collected from the retroorbital sinus before the initial dose and ninety minutes after the third and final dose. Non-fasting serum glucose was determined enzymatically by the mutarotase/glucose oxidase method and serum insulin was determined by a mouse specific ELISA.
# The Model—Male, C57BLKS/J m+/m+Leprdb (db/db) mice were used to assess the potential of the test materials to reduce fasting serum glucose or insulin concentrations.
# Testing Procedure—Test substances were administered daily by gavage in 0.2% Tween-80. […] Non-fasting serum glucose was determined enzymatically by the mutarotase/glucose oxidase method and serum insulin was determined by a mouse specific ELISA.
# [7] = test system: A549 pulmonary epithelial cells; assay: PGE2 biosynthesis in A549 cells stimulated by mite dust allergen; type: cell-based, human; conditions: 10 μg/ml, mite allergen 1000 ng/ml
# Protocol: The filtrate was termed mite dust allergen and used to test for induction of PGE2 biosynthesis in A549 pulmonary epithelial cells.
# Mite allergen was added to the culture medium to achieve a final concentration of 1000 ng/ml. Eighteen hours later, the media were sampled for PGE2 determination.
compound,measurement,setting,value
"CC(=O)Oc1ccccc1C(=O)O [Aspirin, aspirin]",induction of adiponectin secretion,3T3-L1 adipocytes [1]; LPS 100 ng/ml,failed to induce adiponectin secretion
"CC(C)CCC1=C(O)C(C(=O)C(C)C)=C(O)C(CCC(C)C)(CCC(C)C)C1=O [Hexahydro colupulone, hexahydrocolupulone]",adipogenic (lipogenic) response compared with controls,3T3-L1 adipocytes [2],failed to elicit a lipogenic response greater than the solvent controls
same,dose of maximal observed adiponectin secretion,3T3-L1 adipocytes [3]; four doses tested,12.5 µg/mL
CC(C)CCC1=C(O)C(C(=O)C(C)C)=C(O)C(CCC(C)C)(CCC(C)C)C1=O [Hexahydrocolupulone (HHCL)],Adiponectin/IL-6,"3T3-L1 adipocytes [3]; 50.0 μg/ml, ratio of adiponectin index to IL-6 index, insulin-resistant 3T3-L1",0.60#
"COc1ccc2c(c1)c(CC(=O)O)c(C)n2C(=O)c1ccc(Cl)cc1 [Indomethacin, indomethacin]",adiponectin secretion,3T3-L1 adipocytes [4]; 0.5 ng TNFα/ml,dose-dependant decrease in adiponectin secretion
same,increase of adiponectin secretion in the presence of TNFα,"3T3-L1 adipocytes [4]; 10 ng TNFα/ml, Example 16",94%
same,optimal concentration for adiponectin secretion,"3T3-L1 adipocytes [4]; 10 ng TNFα/ml, Example 16",2.5 µg/mL
same,Adiponectin/IL-6,"3T3-L1 adipocytes [4]; 10 ng TNFα/ml, […]",2.00*
same,Concentration providing the maximum inhibition of IL-6 secretion,3T3-L1 adipocytes [5],5.00 µg/mL
same,maximum adiponectin stimulation,"3T3-L1 adipocytes [1]; LPS 100 ng/ml, […]",9%
same,Concentration of maximum stimulation of adiponectin secretion,3T3-L1 adipocytes [1]; LPS-treated D5 3T3-L1 adipocytes,2.50 µg/mL
"CCc1ccc(CCOc2ccc(CC3SC(=O)NC3=O)cc2)nc1 (stereo not shown) [Pioglitazone, pioglitazone]",optimal concentration for adiponectin secretion,"3T3-L1 adipocytes [4]; 10 ng TNFα/ml, Example 16",1.25 µg/mL
same,Concentration of maximum adiponectin secretion over four doses,"3T3-L1 adipocytes [4]; 10 ng TNFα/ml, Example 17",1.25 µg/mL
same,Concentration providing the maximum inhibition of IL-6 secretion,3T3-L1 adipocytes [5],5.00 µg/mL
"Cc1c(C)c2c(c(C)c1O)CCC(C)(COc1ccc(CC3SC(=O)NC3=O)cc1)O2 (stereo not shown) [Troglitazone, troglitazone]",maximum increase of adiponectin secretion from the TNFα solvent control,3T3-L1 adipocytes [4]; 10 ng/ml TNFα,51%
same,Concentration providing the maximum inhibition of IL-6 secretion,3T3-L1 adipocytes [5],10.0 µg/mL
"COc1cc(O)c(CC=C(C)C)c(O)c1C(=O)/C=C/c1ccc(O)cc1 [Xanthohumol, xanthohumol]",adipogenic (lipogenic) response compared with controls,3T3-L1 adipocytes [2],comparable to indomethacin and troglitazone
CN(C)C(=N)N=C(N)N [metformin],serum glucose relative to the controls,[6]; three consecutive days,decreased both serum glucose and insulin concentrations
CN(CCOc1ccc(CC2SC(=O)NC2=O)cc1)c1ccccn1 (stereo not shown) [rosiglitazone],Glucose [% Pretreatment],"[6]; db/db mice, non-fasting serum, 1.0 mg/kg-day by gavage, three days",83.0# % Pretreatment
O=C(O)c1ccccc1O [salicylic acid],induction of adiponectin secretion,3T3-L1 adipocytes [1]; LPS 100 ng/ml,failed to induce adiponectin secretion
Beta acids,Percent PGE2 Inhibition,[7],83%
same,adipogenic (lipogenic) response compared with controls,3T3-L1 adipocytes [2],comparable to indomethacin and troglitazone
